Source: patent publication US12049450B2, “Pyridyloxy-carboxylate derivative and preparation method therefor, herbicidal composition, and use” (Qingdao Kingagroot Chemical Compound Co., Ltd., priority 2018, dated 2024)

What was measured:
Assay in all cases: Post-emergence test experiment (greenhouse pot, spray at 2-3 leaf stage)
Type in all cases: in vivo
Settings in all cases: 1000 g/ha; post-emergence spray at 2-3 leaf stage; assessed after 3 weeks; fresh weight inhibition rate
Galium spurium = test system: Galium spurium
Summary of the method: (§1)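 Weed seeds sown in soil-filled pots in greenhouse, sprayed at 2-3 leaf stage (2 weeks after sowing) with compound in acetone/tween-80 plus methyl oleate emulsible concentrate (1.5 L/ha) diluted in water. Fresh-weight growth inhibition scored after 3 weeks on 0-5 scale (5: >85%, 0: <5%).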

Monochoria vaginalis = test system: Monochoria vaginalis
Summary of the method: as §1

Abutilon theophrasti = test system: Abutilon theophrasti
Summary of the method: as §1

Digitaria sanguinalis = test system: Digitaria sanguinalis
Summary of the method: as §1

Echinochloa crusgalli = test system: Echinochloa crusgalli
Summary of the method: as §1

Row | Compound | Activity level (growth inhibition rate) Galium spurium (Galium spurium) | Activity level (growth inhibition rate) Monochoria Vaginalis (Monochoria vaginalis) | Activity level (growth inhibition rate) Abutilon theophrasti (Abutilon theophrasti) | Activity level (growth inhibition rate) Digitaria sanguinalis (Digitaria sanguinalis) | Activity level (growth inhibition rate) Echinochloa crusgalli (Echinochloa crusgalli)
1 | CCNc1c(Cl)c(F)nc(OC(C)C(=O)SCc2ccccc2)c1Cl (stereo not drawn) [Compound 191] | 5 (Level 5: the growth inhibition rate is greater than 85%) | 5 (Level 5: the growth inhibition rate is greater than 85%) | 5 (Level 5: the growth inhibition rate is greater than 85%) | 5 (Level 5: the growth inhibition rate is greater than 85%) | 5 (Level 5: the growth inhibition rate is greater than 85%)
2 | CC(=O)Nc1c(Cl)c(F)nc(OC(C)C(=O)OCc2ccccc2)c1Cl (stereo not drawn) [Compound 192] | 5 (Level 5: the growth inhibition rate is greater than 85%) | 5 (Level 5: the growth inhibition rate is greater than 85%) | 5 (Level 5: the growth inhibition rate is greater than 85%) | 5 (Level 5: the growth inhibition rate is greater than 85%) | 5 (Level 5: the growth inhibition rate is greater than 85%)
3 | CC(Oc1nc(F)c(Cl)c(NC(=O)c2ccccc2)c1Cl)C(=O)OCc1ccccc1 (stereo not drawn) [Compound 194] | 5 (Level 5: the growth inhibition rate is greater than 85%) | 5 (Level 5: the growth inhibition rate is greater than 85%) | 5 (Level 5: the growth inhibition rate is greater than 85%) | 5 (Level 5: the growth inhibition rate is greater than 85%) | 5 (Level 5: the growth inhibition rate is greater than 85%)
4 | CC(Oc1nc(F)c(Cl)c(NCc2ccccc2)c1Cl)C(=O)OCc1ccccc1 (stereo not drawn) [Compound 195] | 5 (Level 5: the growth inhibition rate is greater than 85%) | 5 (Level 5: the growth inhibition rate is greater than 85%) | 5 (Level 5: the growth inhibition rate is greater than 85%) | 5 (Level 5: the growth inhibition rate is greater than 85%) | 5 (Level 5: the growth inhibition rate is greater than 85%)
5 | Cc1cccc(COC(=O)C(C)Oc2nc(F)c(Cl)c(N)c2Cl)c1 (stereo not drawn) [Compound 196] | 5 (Level 5: the growth inhibition rate is greater than 85%) | 5 (Level 5: the growth inhibition rate is greater than 85%) | 5 (Level 5: the growth inhibition rate is greater than 85%) | 5 (Level 5: the growth inhibition rate is greater than 85%) | 5 (Level 5: the growth inhibition rate is greater than 85%)
6 | Cc1ccc(COC(=O)C(C)Oc2nc(F)c(Cl)c(N)c2Cl)cc1 (stereo not drawn) [Compound 197] | 5 (Level 5: the growth inhibition rate is greater than 85%) | 5 (Level 5: the growth inhibition rate is greater than 85%) | 5 (Level 5: the growth inhibition rate is greater than 85%) | 5 (Level 5: the growth inhibition rate is greater than 85%) | 5 (Level 5: the growth inhibition rate is greater than 85%)
7 | CC(Oc1nc(F)c(Cl)c(N)c1Cl)C(=O)OCc1cccc(F)c1 (stereo not drawn) [Compound 198] | 5 (Level 5: the growth inhibition rate is greater than 85%) | 5 (Level 5: the growth inhibition rate is greater than 85%) | 5 (Level 5: the growth inhibition rate is greater than 85%) | 5 (Level 5: the growth inhibition rate is greater than 85%) | 5 (Level 5: the growth inhibition rate is greater than 85%)
8 | CC(Oc1nc(F)c(Cl)c(N)c1Cl)C(=O)OCc1ccc(F)cc1 (stereo not drawn) [Compound 199] | 5 (Level 5: the growth inhibition rate is greater than 85%) | 5 (Level 5: the growth inhibition rate is greater than 85%) | 5 (Level 5: the growth inhibition rate is greater than 85%) | 5 (Level 5: the growth inhibition rate is greater than 85%) | 5 (Level 5: the growth inhibition rate is greater than 85%)
9 | CC(Oc1nc(F)c(Cl)c(N)c1Cl)C(=O)OCc1ccccc1C#N (stereo not drawn) [Compound 200] | 5 (Level 5: the growth inhibition rate is greater than 85%) | 5 (Level 5: the growth inhibition rate is greater than 85%) | 5 (Level 5: the growth inhibition rate is greater than 85%) | 5 (Level 5: the growth inhibition rate is greater than 85%) | 5 (Level 5: the growth inhibition rate is greater than 85%)
10 | CC(Oc1nc(F)c(Cl)c(N)c1Cl)C(=O)OCc1cccc(C#N)c1 (stereo not drawn) [Compound 201] | 5 (Level 5: the growth inhibition rate is greater than 85%) | 5 (Level 5: the growth inhibition rate is greater than 85%) | 5 (Level 5: the growth inhibition rate is greater than 85%) | 5 (Level 5: the growth inhibition rate is greater than 85%) | 5 (Level 5: the growth inhibition rate is greater than 85%)
11 | CC(Oc1nc(F)c(Cl)c(N)c1Cl)C(=O)OCc1ccccc1Cl (stereo not drawn) [Compound 202] | 5 (Level 5: the growth inhibition rate is greater than 85%) | 5 (Level 5: the growth inhibition rate is greater than 85%) | 5 (Level 5: the growth inhibition rate is greater than 85%) | 5 (Level 5: the growth inhibition rate is greater than 85%) | 5 (Level 5: the growth inhibition rate is greater than 85%)
12 | CC(Oc1nc(F)c(Cl)c(N)c1Cl)C(=O)OCc1cccc(Cl)c1 (stereo not drawn) [Compound 203] | 5 (Level 5: the growth inhibition rate is greater than 85%) | 5 (Level 5: the growth inhibition rate is greater than 85%) | 5 (Level 5: the growth inhibition rate is greater than 85%) | 5 (Level 5: the growth inhibition rate is greater than 85%) | 5 (Level 5: the growth inhibition rate is greater than 85%)
13 | CC(Oc1nc(F)c(Cl)c(N)c1Cl)C(=O)OCc1ccc(Cl)cc1 (stereo not drawn) [Compound 204] | 5 (Level 5: the growth inhibition rate is greater than 85%) | 5 (Level 5: the growth inhibition rate is greater than 85%) | 5 (Level 5: the growth inhibition rate is greater than 85%) | 5 (Level 5: the growth inhibition rate is greater than 85%) | 5 (Level 5: the growth inhibition rate is greater than 85%)
14 | CC(Oc1nc(F)c(Cl)c(N)c1Cl)C(=O)OCc1ccccc1Br (stereo not drawn) [Compound 205] | 5 (Level 5: the growth inhibition rate is greater than 85%) | 5 (Level 5: the growth inhibition rate is greater than 85%) | 5 (Level 5: the growth inhibition rate is greater than 85%) | 5 (Level 5: the growth inhibition rate is greater than 85%) | 5 (Level 5: the growth inhibition rate is greater than 85%)
15 | CC(Oc1nc(F)c(Cl)c(N)c1Cl)C(=O)OCc1cccc(Br)c1 (stereo not drawn) [Compound 206] | 5 (Level 5: the growth inhibition rate is greater than 85%) | 5 (Level 5: the growth inhibition rate is greater than 85%) | 5 (Level 5: the growth inhibition rate is greater than 85%) | 5 (Level 5: the growth inhibition rate is greater than 85%) | 5 (Level 5: the growth inhibition rate is greater than 85%)
